The text below walks through data of publication PMC12008195 (Scientific Reports, 2025).

Data set [1] deals with HepG-2 cells. Kind of data set: Cell cycle analysis, propidium iodide flow cytometry. It is filed as cell-based, human. The conditions noted are these: 3b at 6 µM.
The subject of another data set is Bcl-2. Put plainly: RT-PCR gene expression of Bcl-2 in HepG-2 cells. It is filed as cell-based, human. The conditions noted are these: versus untreated cells.
Data set [2] relates to HepG-2 cells. Kind of data set: Annexin-V/propidium iodide staining assay. The data set is classed as cell-based, human.
For data set [3], the system named is HCT-116 (human colon cancer). The settings on record: read-out: IC50 HCT-116; MTT, 24-hour exposure; cited from earlier work.
In data set [4] the test system is HepG2 (hepatocellular carcinoma). The conditions noted are these: read-out: IC50 HepG-2; MTT, 24-hour exposure; cited from earlier work.
Data set [5] concerns MCF-7 (mammary gland breast cancer). The conditions noted are these: read-out: IC50 MCF-7; MTT, 24-hour exposure; cited from earlier work.
The test system of data set [6] is WI-38 (human lung fibroblasts). The conditions noted are these: read-out: IC50 WI-38 human fibroblasts; MTT, normal non-cancer cells; cited from earlier work.
For data set [7] the following is noted: cited from earlier work.

The term IC50 denotes the concentration that gives 50% inhibition.

SMILES strings stand for the structures.

As for `Cc1cc2c(cc1C)N[C@H](c1ccccc1)[C@@H](O)C(=O)N2` [Compound 3b, (3R,4R)−3-hydroxy-7,8-dimethyl-4-phenyl-1,3,4,5-tetrahydro-2 H-1,5-benzodiazepin-2-one], the “Increase of DNA content at G2/M phase compared to non-treated cells” value in the data set with HepG-2 cells [1] was 28%. Moreover, the “Gene expression fold change Bcl-2” value with Bcl-2 was found to be 0.339 fold. Further, in the data set with HepG-2 cells [2], the “Fold increase in the proportion of necrotic cells versus control” value worked out at 2.6 fold. In addition, the IC50 in data set [3] was 9.18 µM; in data set [4], 6.13 µM; in data set [5] it was 7.86 µM; in data set [6] it was 14 µM. For the same compound, the “Lipinski's rule of five” value in data set [7] (MW ≤ 500 Da, LogP < 5, nHBD ≤ 5, nHBA ≤ 10, TPSA < 140 Å2) is “satisfied”. Besides, the Predicted oral bioavailability entry in data set [7] (in silico studies) was “good”.
